Like-named read-outs stand apart in the source and are kept apart here.
How the values were obtained:
[1] = tested on: Hedgehog pathway activation on 10T1/2/Smo#3 cells (C3H10T1/2 cells transfected with human Smoothened receptor); assay: Hedgehog pathway activation on 10T1/2/Smo#3 cells measured by ALP activity; assay type: cell-based
In short: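 Inhibition of alkaline phosphatase induction, read fluorometrically from 4-methylumbelliferyl phosphate conversion, gave IC50 values; CellTiter-Blue tracked viability in parallel. Cells were the human Smo-transfected 10T1/2/Smo#3 pool, stimulated by 10-20% hShh conditioned medium or the Smo agonist SAG (500 nM).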

[2] = tested on: Hedgehog pathway activation (GLi-luciferase reporter) in Shh Light II reporter cells; assay: Hedgehog pathway activation on Shh Light II reporter cells measured by luciferase activity; assay type: cell-based
In short: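 Shh Light II reporter cells carrying a hedgehog-responsive GLi-luciferase reporter were stimulated either with 500 nM SAG, a direct Smoothened agonist, or with conditioned media containing human Sonic Hedgehog (hShh). Test compounds were evaluated for blocking this pathway activation, quantified by luciferase activity. Cell viability was monitored in parallel with the Celltiter-Blue® assay.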

[3] = Mus musculus, C3H 10T1/2, 10T1/2/Smo#3 cells, measured by ALP activity, read-out: ALP (IC50, inhibition of Hedgehog pathway activation)
[4] = Mus musculus, Shh Light II, hShh activation, read-out: Shh (IC50, inhibition of Hedgehog pathway activation)
[5] = Mus musculus, C3H 10T1/2, 10T1/2/Smo#3 cells, hShh activation, ALP activity, read-out: 10T1/2/Smo#3 ALP activity (hShh Activation)
[6] = Mus musculus, Shh Light II, SAG activation (500 nM SAG), read-out: Shh Light II luciferase activity (SAG activation)
[7] = Mus musculus, Shh Light II, hShh activation, read-out: Shh Light II luciferase activity (hShh activation)

Structure (SMILES): CC(C)(C)C(=O)Nc1cc(-c2cn3nc(-c4ccncc4F)ccc3n2)ccc1C(F)(F)F [Example 177, N-(5-(6-(3-fluoropyridin-4-yl)imidazo[1,2-b]pyridazin-2-yl)-2-(trifluoromethyl)phenyl)pivalamide]
- IC50 [1, 3]: 236 nM
- IC50 [2, 4]: 357 nM

Structure (SMILES): CN[C@H]1CCN(c2ccc3nc(-c4ccc(C)c(NC(=O)C(C)(C)C)c4)cn3n2)C1 [Example 392, (S)-N-(2-methyl-5-(6-(3-(methylamino)pyrrolidin-1-yl)imidazo[1,2-b]pyridazin-2-yl)phenyl)pivalamide]
- IC50 [1, 3]: 93 nM
- IC50 [2, 4]: 77 nM

Structure (SMILES): COc1ccc(-c2ccc3nc(-c4ccc(C(F)(F)F)c(NC(=O)C(C)(C)C)c4)cn3n2)cc1 [Example 244, N-(5-(6-(4-methoxyphenyl)imidazo[1,2-b]pyridazin-2-yl)-2-(trifluoromethyl)phenyl)pivalamide]
- IC50 [1, 3]: 1630 nM
- IC50 [2, 4]: 308 nM

Structure (SMILES): CC(C)(C)C(=O)Nc1cc(-c2cn3nc(N4CCOCC4)ccc3n2)ccc1C(F)(F)F [Example 232, N-(5-(6-morpholinoimidazo[1,2-b]pyridazin-2-yl)-2-(trifluoromethyl)phenyl)pivalamide]
- IC50 [1, 3]: 414 nM
- IC50 [2, 4]: 428 nM

Structure (SMILES): Cc1ccc(-c2cn3nc(-c4cccnc4C(F)(F)F)ccc3n2)cc1NC(=O)C(C)(C)C [Example 284, N-(2-methyl-5-(6-(2-(trifluoromethyl)pyridin-3-yl)imidazo[1,2-b]pyridazin-2-yl)phenyl)pivalamide]
- IC50 [1, 5]: < 300 nM
- IC50 [1, 3]: 29 nM
- IC50 [2, 6]: < 300 nM
- IC50 [2, 4]: 57 nM
- IC50 [2, 7]: < 300 nM

Structure (SMILES): Cc1ccc(-c2cn3nc(N4CCC(O)CC4)ccc3n2)cc1NC(=O)C(C)(C)C [Example 286, N-(5-(6-(4-hydroxypiperidin-1-yl)imidazo[1,2-b]pyridazin-2-yl)-2-methylphenyl)pivalamide]
- IC50 [1, 3]: 127 nM
- IC50 [2, 4]: 193 nM

Structure (SMILES): COc1ncc(-c2ccc3nc(-c4ccc(C(F)(F)F)c(NC(=O)C(C)(C)C)c4)cn3n2)cn1 [Example 373, N-(5-(6-(2-methoxypyrimidin-5-yl)imidazo[1,2-b]pyridazin-2-yl)-2-(trifluoromethyl)phenyl)pivalamide]
- IC50 [1, 3]: 533 nM
- IC50 [2, 4]: 929 nM

Structure (SMILES): CC(C)(C)C(=O)Nc1cc(-c2cn3nc(-c4cccnc4C(F)(F)F)ccc3n2)c(F)cc1Cl [Example 650, N-(2-chloro-4-fluoro-5-(6-(2-(trifluoromethyl)pyridin-3-yl)imidazo[1,2-b]pyridazin-2-yl)phenyl)pivalamide]
- IC50 [1, 5]: < 300 nM
- IC50 [1, 3]: 25 nM
- IC50 [2, 6]: < 300 nM
- IC50 [2, 4]: 100 nM
- IC50 [2, 7]: < 300 nM

Structure (SMILES): CC(C)(C)CC(=O)Nc1cc(-c2cn3nc(-c4cccnc4C(F)(F)F)ccc3n2)ccc1F [Example 679, N-(2-fluoro-5-(6-(2-(trifluoromethyl)pyridin-3-yl)imidazo[1,2-b]pyridazin-2-yl)phenyl)-3,3-dimethylbutanamide]
- IC50 [1, 3]: 658 nM
- IC50 [2, 4]: 254 nM

Structure (SMILES): Cc1cc(F)c(-c2cn3nc(-c4cccnc4C(F)(F)F)ccc3n2)cc1NC(=O)C(C)(C)C [Example 649, N-(4-fluoro-2-methyl-5-(6-(2-(trifluoromethyl)pyridin-3-yl)imidazo[1,2-b]pyridazin-2-yl)phenyl)pivalamide]
- IC50 [1, 3]: 50 nM
- IC50 [2, 4]: 80 nM

Structure (SMILES): Cc1ccc(-c2cn3nc(-c4cc(F)ccc4C(F)(F)F)ccc3n2)cc1NC(=O)C(C)(C)C [Example 281, N-(5-(6-(5-fluoro-2-(trifluoromethyl)phenyl)imidazo[1,2-b]pyridazin-2-yl)-2-methylphenyl)pivalamide]
- IC50 [1, 3]: 38 nM
- IC50 [2, 4]: 72 nM

Structure (SMILES): CCc1ccc(-c2cn3nc(-c4cccnc4C(F)(F)F)ccc3n2)cc1NC(=O)C(C)(C)C [Example 352, N-(2-ethyl-5-(6-(2-(trifluoromethyl)pyridin-3-yl)imidazo[1,2-b]pyridazin-2-yl)phenyl)pivalamide]
- IC50 [1, 5]: < 300 nM
- IC50 [1, 3]: 14 nM
- IC50 [2, 6]: < 300 nM
- IC50 [2, 4]: 11 nM
- IC50 [2, 7]: < 300 nM

Structure (SMILES): CC(C)(C)OC(=O)NC1CCN(c2ccc3nc(-c4ccc(C(F)(F)F)c(NC(=O)C(C)(C)C)c4)cn3n2)C1 (centres unmarked) [Example 297, tert-butyl 1-(2-(3-pivalamido-4-(trifluoromethyl)phenyl)imidazo[1,2-b]pyridazin-6-yl)pyrrolidin-3-ylcarbamate]
- IC50 [1, 3]: 463 nM
- IC50 [2, 4]: 452 nM

Structure (SMILES): Cc1ccc(-c2cn3nc(-c4cc(Cl)cnc4F)ccc3n2)cc1NC(=O)C(C)(C)C [Example 279, N-(5-(6-(5-chloro-2-fluoropyridin-3-yl)imidazo[1,2-b]pyridazin-2-yl)-2-methylphenyl)pivalamide]
- IC50 [1, 3]: 129 nM
- IC50 [2, 4]: 282 nM

Structure (SMILES): CCOC1CCN(c2ccc3nc(-c4ccc(C(F)(F)F)c(NC(=O)C(C)(C)C)c4)cn3n2)CC1 [Example 367, N-(5-(6-(4-ethoxypiperidin-1-yl)imidazo[1,2-b]pyridazin-2-yl)-2-(trifluoromethyl)phenyl)pivalamide]
- IC50 [1, 3]: 343 nM
- IC50 [2, 4]: 312 nM

Structure (SMILES): Cc1ccc(-c2cn3nc(-c4ccc(C(=O)O)cc4C(F)(F)F)ccc3n2)cc1NC(=O)C(C)(C)C [Example 479, 4-(2-(4-methyl-3-pivalamidophenyl)imidazo[1,2-b]pyridazin-6-yl)-3-(trifluoromethyl)benzoic acid]
- IC50 [1, 5]: < 300 nM
- IC50 [1, 3]: 86 nM
- IC50 [2, 6]: < 300 nM
- IC50 [2, 4]: 6 nM
- IC50 [2, 7]: < 300 nM

Structure (SMILES): CC(C)(C)C(=O)Nc1cc(-c2cn3nc(-c4ccccc4C(F)(F)F)ccc3n2)ccc1C(F)(F)F [Example 209, N-(2-(trifluoromethyl)-5-(6-(2-(trifluoromethyl)phenyl)imidazo[1,2-b]pyridazin-2-yl)phenyl)pivalamide]
- IC50 [1, 3]: 97 nM
- IC50 [2, 4]: 72 nM

Structure (SMILES): COCCN(C)c1ccc2nc(-c3ccc(C(F)(F)F)c(NC(=O)C(C)(C)C)c3)cn2n1 [Example 299, N-(5-(6-((2-methoxyethyl)(methyl)amino)imidazo[1,2-b]pyridazin-2-yl)-2-(trifluoromethyl)phenyl)pivalamide]
- IC50 [1, 3]: 478 nM
- IC50 [2, 4]: 338 nM

Structure (SMILES): CCc1ccc(-c2cn3nc(-c4cccnc4C(F)(F)F)ccc3n2)cc1NC(=O)CC(C)(C)C [Example 691, N-(2-ethyl-5-(6-(2-(trifluoromethyl)pyridin-3-yl)imidazo[1,2-b]pyridazin-2-yl)phenyl)-3,3-dimethylbutanamide]
- IC50 [1, 3]: 1220 nM
- IC50 [2, 4]: 459 nM

Structure (SMILES): Cc1ccccc1-c1ccc2nc(-c3ccc(C(F)(F)F)c(NC(=O)C(C)(C)C)c3)cn2n1 [Example 241, N-(5-(6-o-tolylimidazo[1,2-b]pyridazin-2-yl)-2-(trifluoromethyl)phenyl)pivalamide]
- IC50 [1, 3]: 96 nM
- IC50 [2, 4]: 208 nM

Structure (SMILES): CC(C)(C)C(=O)Nc1cc(-c2cn3nc(-c4cccnc4C(F)(F)F)ccc3n2)ccc1F [Example 658, N-(2-fluoro-5-(6-(2-(trifluoromethyl)pyridin-3-yl)imidazo[1,2-b]pyridazin-2-yl)phenyl)pivalamide]
- IC50 [1, 3]: 85 nM
- IC50 [2, 4]: 27 nM

Structure (SMILES): CNC1CCN(c2ccc3nc(-c4ccc(C)c(NC(=O)C(C)(C)C)c4)cn3n2)C1 (centres unmarked) [Example 473, N-(2-methyl-5-(6-(3-(methylamino)pyrrolidin-1-yl)imidazo[1,2-b]pyridazin-2-yl)phenyl)pivalamide]
- IC50 ([1]; 10T1/2/Smo#3 cells, measured by ALP activity, read-out: ALP (IC50, inhibition of Hedgehog pathway activation)): 93 nM
- IC50 ([2]; hShh activation, read-out: Shh (IC50, inhibition of Hedgehog pathway activation)): 77 nM

Structure (SMILES): CC(C)(C)C(=O)Nc1cc(-c2cn3nc(Oc4ccc(F)cc4)ccc3n2)ccc1C(F)(F)F [Example 196, N-(5-(6-(4-fluorophenoxy)imidazo[1,2-b]pyridazin-2-yl)-2-(trifluoromethyl)phenyl)pivalamide]
- IC50 [1, 5]: 300 to 3000 nM
- IC50 [1, 3]: 1620 nM
- IC50 [2, 6]: 3000 to 30000 nM
- IC50 [2, 4]: 726 nM
- IC50 [2, 7]: 300 to 3000 nM

Structure (SMILES): CC(C)(C)C(=O)Nc1cc(-c2cn3ccc(Cl)cc3n2)ccc1C(F)(F)F [Example 82, N-(5-(7-chloroimidazo[1,2-a]pyridin-2-yl)-2-(trifluoromethyl)phenyl)pivalamide]
- IC50 [1, 3]: > 10000 nM
- IC50 [2, 4]: 6060 nM

Structure (SMILES): CC(C)(C)C(=O)Nc1cc(-c2cn3nc(OC4CCC(O)CC4)ccc3n2)ccc1C(F)(F)F (centres unmarked) [Example 375, N-(5-(6-(4-hydroxycyclohexyloxy)imidazo[1,2-b]pyridazin-2-yl)-2-(trifluoromethyl)phenyl)pivalamide]
- IC50 [1, 3]: 372 nM
- IC50 [2, 4]: 316 nM

Structure (SMILES): Cc1ccc(-c2cn3nc(-c4cc(C#N)ccc4C)ccc3n2)cc1NC(=O)C(C)(C)C [Example 450, N-(5-(6-(5-cyano-2-methylphenyl)imidazo[1,2-b]pyridazin-2-yl)-2-methylphenyl)pivalamide]
- IC50 [1, 5]: < 300 nM
- IC50 [1, 3]: 337 nM
- IC50 [2, 6]: < 300 nM
- IC50 [2, 4]: 322 nM
- IC50 [2, 7]: < 300 nM

Structure (SMILES): CC(=O)NC1CCN(c2ccc3nc(-c4ccc(C(F)(F)F)c(NC(=O)C(C)(C)C)c4)cn3n2)C1 (centres unmarked) [Example 351, N-(5-(6-(3-acetamidopyrrolidin-1-yl)imidazo[1,2-b]pyridazin-2-yl)-2-(trifluoromethyl)phenyl)pivalamide]
- IC50 [1, 3]: 21 nM
- IC50 [2, 4]: 38 nM

Structure (SMILES): CCOc1ccc2nc(-c3ccc(C(F)(F)F)c(NC(=O)C(C)C)c3)cn2n1 [Example 185, N-(5-(6-ethoxyimidazo[1,2-b]pyridazin-2-yl)-2-(trifluoromethyl)phenyl)isobutyramide]
- IC50 [1, 3]: 1670 nM
- IC50 [2, 4]: 1780 nM
